Test results taken from patent publication US20220184072A1 (priority 2019, published 2022).
Values joined by “and” are separate entries in the source; they are usually repeats but may differ in a detail not shown here. Identical values can stand only once. Like-named read-outs stand apart in the source and are kept apart here.

How the values were obtained:
ZFD rats [1] = assay: ZFD rat model, manual von Frey (tactile); assay type: in vivo; set-up: unit not given here
ZFD rats [2] = assay: ZFD rat model, paw formalin test; assay type: in vivo; details: s.c. or i.t., at the end of the study
From the text: Paw formalin test: This test enables discrimination of pain driven by primary afferent input (phase 1) versus spinal sensitization and amplifications of primary afferent input (phase 2). There is, however, no clinical equivalent to this test. The method used here is described in detail in Calcutt (2004), supra.

NR2B = assay: CNS phosphoprotein profile, NR2B; assay type: in vivo; details: mice nucleus accumbens, 3 mg/kg, 30-60 minutes
Description: (§1) A comprehensive molecular phosphorylation study is also carried out to examine the central nervous system (CNS) profile of the compound of Example 1. The extent of protein phosphorylation for selected key central nervous system proteins is measured in mice nucleus accumbens.
(§2) Mice were killed 30 minutes to 2 hours post-injection by focused microwave cranial irradiation, which preserves brain phosphoprotein as it exists at the time of death. Nucleus accumbens was then dissected from each mouse brain, sliced and frozen in liquid nitrogen. Samples were further prepared for phosphoprotein analysis via SDS-PAGE electrophoresis followed by phosphoprotein-specific immunoblotting, as described in Zhu H, et al., Brain Res. 2010 Jun. 25; 1342:11-23. Phosphorylation at each site was quantified, normalized to total levels of the protein (non-phosphorylated), and expressed as percent of the level of phosphorylation in vehicle-treated control mice.

C57 mice = details: mouse, in vivo
ZFD rats [3] = assay: ZFD rat model, electronic von Frey (paw pressure); assay type: in vivo; set-up: unit not given here
Description: Forty (40) adult, male […] rats weighing 225-275 g at the start of the study are used in these experiments, including ten (10) lean, controls and thirty (30) ZFD rats. Animals are maintained in the vivarium at a controlled room temperature between 65 to 85° F. and a relative humidity between 30-70% under illumination by fluorescent lighting on a daily 12-hour light/dark cycle. All animals are maintained 2 per cage with free access to dry food and water.
Paw pressure response threshold: This test applies greater force to the plantar hind paw than manual von Frey filaments and may be equated to pressure-induced pain such as that described by diabetic subjects upon standing and walking. Hyperalgesia to this measure develops over several weeks in ZFD rats such that this test can give an assessment of hyperalgesia and drug efficacy that differs from the allodynia measured by manual von Frey filaments. The method is described in detail by Lee-Kubil, Mixcoati-Zecuatl, Jolivalt, & Calcutt, Animal Models of Diabetes-Induced Neuropathic Pain, CURRENT TOPICS IN BEHAVIORAL NEUROSCIENCES 20: 147-170 (2014).
Dosing procedures. Zucker Fatty Diabetic rats are found to develop hyperglycemia over 6-8 weeks. […] Upon confirmation of the presence of painful neuropathy, rats are tested for three measures of hyperalgesia: cold allodynia threshold, tactile hyperalgesia (von Frey filaments), and pressure responses measured by a mechanical von Frey device. All rats are tested in all three assays and all rats receive each of four (4) pre-treatments administered subcutaneously (s.c.) in a vehicle of 10% Trappsol in water. All rats receive treatments in the same order, as follows: vehicle, 1 mg/kg Compound of Ex. 1, 3 mg/kg Compound of Ex. 1, and 10 mg/kg Compound of Ex. 1. Rats receive pre-treatments 30 minutes prior to the start of testing. Hyperalgesia/allodynia measures are recorded from each rat at baseline (0 time), then 1, 2, 3, 4, and 6 h after treatment.
After the completion of testing of all rats at all dose/conditions for each assay (cold, tactile, and pressure responses) rats are out-fitted with cannulas for intrathecal (i.t.) application of vehicle or Compound of Ex. 1 (1, 3 or 10 μg) directly to spinal cord. All rats are then re-tested in each of the tree assays at each of the 4 pretreatment conditions/doses.

[4] = test system: TH (tyrosine hydroxylase); assay: CNS phosphoprotein profile, TH; assay type: in vivo; details: mice nucleus accumbens; Example 1 3 mg/kg at 30 or 60 minutes; haloperidol 2 mg/kg
Description: as §1, §2

[5] = Control rats, 10 mg/kg s.c., 0 hr
[6] = Control rats, 10 mg/kg s.c., 1 hr
[7] = Control rats, 10 mg/kg s.c., 2 hr
[8] = Control rats, 10 mg/kg s.c., 4 hr

`O=C1CN2c3c(cccc3[C@@H]3CN(CCCOc4ccc(F)cc4)CC[C@@H]32)N1` [Example 1, (6bR,10aS)-8-(3-(4-fluorophenoxy)propyl)-6b,7,8,9,10,10a-hexahydro-1H-pyrido[3′,4′:4,5]pyrrolo[1,2,3-de]quinoxalin-2(3H)-one] was tested, and the “Manual von Frey, threshold for paw withdrawal” value (“Manual von Frey, threshold” for short) (ZFD rats [1]; Control rats, 10 μg i.t., 0 hr) was 11.90, the “Manual von Frey, threshold” value (ZFD rats [1]; Control rats, 10 μg i.t., 1 hr) was 13.90 and the “Manual von Frey, threshold” value (ZFD rats [1]; Control rats, 10 μg i.t., 2 hr) was 14.14. The “Manual von Frey, threshold” value (ZFD rats [1]; Control rats, 10 μg i.t., 4 hr) was 13.67, the “Manual von Frey, threshold” value (ZFD rats [1]; [5]) was 13.98 and the “Manual von Frey, threshold” value (ZFD rats [1]; [6]) was 12.28. For the same compound, the “Manual von Frey, threshold” value (ZFD rats [1]; [7]) was 13.93, the “Manual von Frey, threshold” value (ZFD rats [1]; [8]) was 13.45 and the “Manual von Frey, threshold” value (ZFD rats [1]; ZFD rats, 1 μg i.t., 0 hr) was 2.06. For the same compound, the “Manual von Frey, threshold” value (ZFD rats [1]; ZFD rats, 1 μg i.t., 1 hr) was 2.28, the “Manual von Frey, threshold” value (ZFD rats [1]; ZFD rats, 1 μg i.t., 4 hr) was 4.25 and the “Manual von Frey, threshold” value (ZFD rats [1]; ZFD rats, 3 μg i.t., 0 hr) was 5.78. The “Manual von Frey, threshold” value (ZFD rats [1]; ZFD rats, 3 μg i.t., 1 hr) was 9.68, the “Manual von Frey, threshold” value (ZFD rats [1]; ZFD rats, 3 μg i.t., 2 hr) was 12.11 and the “Manual von Frey, threshold” value (ZFD rats [1]; ZFD rats, 3 μg i.t., 4 hr) was 7.01. For the same compound, the “Manual von Frey, threshold” value (ZFD rats [1]; ZFD rats, 10 μg i.t., 0 hr) was 1.92, the “Manual von Frey, threshold” value (ZFD rats [1]; ZFD rats, 10 μg i.t., 1 hr) was 8.53 and the “Manual von Frey, threshold” value (ZFD rats [1]; ZFD rats, 10 μg i.t., 2 hr) was 11.57. The “Manual von Frey, threshold” value (ZFD rats [1]; ZFD rats, 10 μg i.t., 4 hr) was 4.77, the “Manual von Frey, threshold” value (ZFD rats [1]; ZFD rats, 1 mg/kg s.c., 1 hr) was 2.61 and the “Manual von Frey, threshold” value (ZFD rats [1]; ZFD rats, 1 mg/kg s.c., 2 hr) was 1.70. The “Manual von Frey, threshold” value (ZFD rats [1]; ZFD rats, 1 mg/kg s.c., 4 hr) was 2.07, the “Manual von Frey, threshold” value (ZFD rats [1]; ZFD rats, 3 mg/kg s.c., 0 hr) was 2.22 and the “Manual von Frey, threshold” value (ZFD rats [1]; ZFD rats, 3 mg/kg s.c., 1 hr) was 6.48. The “Manual von Frey, threshold” value (ZFD rats [1]; ZFD rats, 3 mg/kg s.c., 2 hr) was 10.15, the “Manual von Frey, threshold” value (ZFD rats [1]; ZFD rats, 10 mg/kg s.c., 0 hr) was 1.71 and the “Manual von Frey, threshold” value (ZFD rats [1]; ZFD rats, 10 mg/kg s.c., 1 hr) was 6.97. The “Manual von Frey, threshold” value (ZFD rats [1]; ZFD rats, 10 mg/kg s.c., 2 hr) was 13.47, the “Manual von Frey, threshold” value (ZFD rats [1]; ZFD rats, 10 mg/kg s.c., 4 hr) was 9.25 and the “pain responses in early or late phase of the formalin test” value (ZFD rats [2]) was “no effect”. For the same compound, the “NR2B phosphorylation at Tyr1472” value (NR2B) was “no significant effect”, the “Mean Behavior Rating (0-4)” value (C57 mice; po, 3 mg/kg) was 0.9 and 0.8 and 1.5 and the “Mean Behavior Rating (0-4)” value (C57 mice; sc, 1 mg/kg) was 1.0 and 1.9 and 1.1. For the same compound, the “Electronic von Frey (paw pressure response)” value (“Electronic von Frey” for short) (ZFD rats [3]; Control rats, 10 μg i.t., 0 hr) was 63.68, the “Electronic von Frey” value (ZFD rats [3]; Control rats, 10 μg i.t., 1 hr) was 60.91 and the “Electronic von Frey” value (ZFD rats [3]; Control rats, 10 μg i.t., 2 hr) was 62.10. For the same compound, the “Electronic von Frey” value (ZFD rats [3]; Control rats, 10 μg i.t., 4 hr) was 59.56, the “Electronic von Frey” value (ZFD rats [3]; [5]) was 58.64 and the “Electronic von Frey” value (ZFD rats [3]; [6]) was 55.73. For the same compound, the “Electronic von Frey” value (ZFD rats [3]; [7]) was 60.74, the “Electronic von Frey” value (ZFD rats [3]; [8]) was 62.89 and the “Electronic von Frey” value (ZFD rats [3]; ZFD rats, 1 μg i.t., 0 hr) was 24.76. The “Electronic von Frey” value (ZFD rats [3]; ZFD rats, 1 μg i.t., 1 hr) was 34.77, the “Electronic von Frey” value (ZFD rats [3]; ZFD rats, 1 μg i.t., 2 hr) was 30.09 and the “Electronic von Frey” value (ZFD rats [3]; ZFD rats, 1 μg i.t., 4 hr) was 28.19. The “Electronic von Frey” value (ZFD rats [3]; ZFD rats, 3 μg i.t., 0 hr) was 33.23, the “Electronic von Frey” value (ZFD rats [3]; ZFD rats, 3 μg i.t., 1 hr) was 53.94 and the “Electronic von Frey” value (ZFD rats [3]; ZFD rats, 3 μg i.t., 2 hr) was 50.17. The “Electronic von Frey” value (ZFD rats [3]; ZFD rats, 3 μg i.t., 4 hr) was 39.95, the “Electronic von Frey” value (ZFD rats [3]; ZFD rats, 10 μg i.t., 0 hr) was 24.68 and the “Electronic von Frey” value (ZFD rats [3]; ZFD rats, 10 μg i.t., 1 hr) was 46.37. For the same compound, the “Electronic von Frey” value (ZFD rats [3]; ZFD rats, 10 μg i.t., 2 hr) was 45.01, the “Electronic von Frey” value (ZFD rats [3]; ZFD rats, 10 μg i.t., 4 hr) was 32.33 and the “Electronic von Frey” value (ZFD rats [3]; ZFD rats, 1 mg/kg s.c., 0 hr) was 28.36. The “Electronic von Frey” value (ZFD rats [3]; ZFD rats, 1 mg/kg s.c., 1 hr) was 32.99, the “Electronic von Frey” value (ZFD rats [3]; ZFD rats, 1 mg/kg s.c., 2 hr) was 27.35 and the “Electronic von Frey” value (ZFD rats [3]; ZFD rats, 1 mg/kg s.c., 4 hr) was 24.67. For the same compound, the “Electronic von Frey” value (ZFD rats [3]; ZFD rats, 3 mg/kg s.c., 0 hr) was 33.72, the “Electronic von Frey” value (ZFD rats [3]; ZFD rats, 3 mg/kg s.c., 1 hr) was 54.21 and the “Electronic von Frey” value (ZFD rats [3]; ZFD rats, 3 mg/kg s.c., 2 hr) was 58.41. For the same compound, the “Electronic von Frey” value (ZFD rats [3]; ZFD rats, 3 mg/kg s.c., 4 hr) was 30.01, the “Electronic von Frey” value (ZFD rats [3]; ZFD rats, 10 mg/kg s.c., 0 hr) was 22.69 and the “Electronic von Frey” value (ZFD rats [3]; ZFD rats, 10 mg/kg s.c., 1 hr) was 56.02. For the same compound, the “Electronic von Frey” value (ZFD rats [3]; ZFD rats, 10 mg/kg s.c., 2 hr) was 58.15, the “Electronic von Frey” value (ZFD rats [3]; ZFD rats, 10 mg/kg s.c., 4 hr) was 39.32 and the “increase in TH phosphorylation at Ser40” value [4] was “no significant effect”.
